The values that follow are results of earlier work, collected in article PMC10410440, “Preclinical PK investigation of a novel IDO1/TDO dual inhibitor—SHR9146 in mouse plasma and tissues by LC-MS/MS” (Frontiers in Oncology, 2023).

On the set-up of the data set: method as in PMID 31221619. As to conditions: phase III trial; epacadostat combined with a PD-1 checkpoint inhibitor compared with pembrolizumab alone; cited from earlier work.

Regarding `NS(=O)(=O)NCCNc1nonc1C(=NO)Nc1ccc(F)c(Br)c1` [epacadostat], the progression-free survival rate entry is “no significant improvement”.
